According to ChEMBL document CHEMBL5154661, “Novel 2-phenyl-3-(Pyridin-2-yl) thiazolidin-4-one derivatives as potent inhibitors for proliferation of osteosarcoma cells in vitro and in vivo” (Eur J Med Chem, 2022):
Values after ≈ are worked out from the molar mass of the structure shown. Blank lines part the entries; values can stand above or below the molecule they belong to.

Tests used:
[1] = system: HOS-TE85; experiment: Antiproliferative activity against human MNNG/HOS cells assessed as cell growth inhibition measured after 72 hrs by CCK-8 assay; format: functional, cell-based; settings: HOS-TE85, 72 h
[2] = system: HOS; experiment: Antiproliferative activity against human HOS cells assessed as cell growth inhibition at 1 uM measured after 72 hrs by CCK-8 assay relative to control; format: functional
[3] = system: HOS-TE85; experiment: Antiproliferative activity against human MNNG/HOS cells assessed as cell growth inhibition at 1 uM measured after 72 hrs by CCK-8 assay relative to control; format: functional
[4] = system: 143B; experiment: Antiproliferative activity against human 143B cells assessed as cell growth inhibition at 1 uM measured after 72 hrs by CCK-8 assay relative to control; format: functional
[5] = system: MG-63; experiment: Antiproliferative activity against human MG-63 cells assessed as cell growth inhibition at 1 uM measured after 72 hrs by CCK-8 assay relative to control; format: functional
[6] = system: SJSA-1; experiment: Antiproliferative activity against human SJSA-1 assessed as cell growth inhibition at 1 uM measured after 72 hrs by CCK-8 assay relative to control; format: functional
[7] = system: U2OS; experiment: Antiproliferative activity against human U2OS cells assessed as cell growth inhibition at 1 uM measured after 72 hrs by CCK-8 assay relative to control; format: functional
[8] = Microsomal stability in rat liver microsomes assessed as intrinsic clearance at 0.1 uM incubated for 10 mins in presence of NADPH by LC-MS/MS analysis; format: ADME, Microsome
[9] = Microsomal stability in human liver microsomes assessed as intrinsic clearance at 0.1 uM incubated for 10 mins in presence of NADPH by LC-MS/MS analysis; format: ADME, Microsome
[10] = Kinetic solubility of compound at pH 6.8 by turbidimetry method; format: physicochemical; settings: buffer, read-out: Kinetic_solubility
[11] = Kinetic solubility of compound at pH 7.4 by turbidimetry method; format: physicochemical; settings: buffer, read-out: Kinetic_solubility
[12] = Microsomal stability in mouse liver microsomes assessed as intrinsic clearance at 0.1 uM incubated for 10 mins in presence of NADPH by LC-MS/MS analysis; format: ADME, Microsome

Compound: O=C(NCCCCc1ccccc1)c1cccc(C2SCC(=O)N2c2ccc(N3CCOCC3)cc2)c1 (stereo not given)
- IC50 [1]: > 1000 nM

Compound: COc1ccccc1N1C(=O)CSC1c1cccc(C(=O)NCCCCn2cncn2)c1 (stereo not given)
- IC50 [1]: > 1000 nM

Compound: CCOC(=O)c1sc(N2C(=O)CSC2c2cccc(C(=O)NCCCCn3cccn3)c2)nc1C (stereo not given)
- IC50 [1]: 430 nM

Compound: COc1ccccc1N1C(=O)CSC1c1cccc(C(=O)NCCCCn2cccn2)c1 (stereo not given)
- IC50 [1]: 91.7 nM

Compound: O=C(NCCCCc1ccccc1)c1cccc(C2SCC(=O)N2c2nccs2)c1 (stereo not given)
- IC50 [1]: > 1000 nM

Compound: O=C(NCCCCn1cccn1)c1cccc(C2SCC(=O)N2c2cc(Br)ccn2)c1 (stereo not given)
- IC50 [1]: 105 nM

Compound: COc1ccccc1N1C(=O)CSC1c1cccc(C(=O)NCCCCN2C(=O)C=CC2=O)c1 (stereo not given)
- IC50 [1]: > 1000 nM

Compound: O=C(NCCCCn1cccn1)c1cccc(C2SCC(=O)N2c2cccnc2)c1 (stereo not given)
- IC50 [1]: > 1000 nM

Compound: CCN(CC)c1ccc(N2C(=O)CSC2c2cccc(C(=O)NCCCCc3ccccc3)c2)cc1 (stereo not given)
- IC50 [1]: > 1000 nM

Compound: CC1SC(c2cccc(C(=O)NCCCCc3ccccc3)c2)N(c2cccc(C3CC3)c2)C1=O (stereo not given)
- IC50 [1]: 295 nM

Compound: O=C(NCCCCc1ccccc1)c1cccc(C2SCC(=O)N2c2ccccc2)c1 (stereo not given)
- inhibition at 1 µM [2]: 55%
- inhibition at 1 µM [3]: 96%
- inhibition at 1 µM [4]: 60%
- inhibition at 1 µM [5]: 89%
- IC50 [1]: 15.9 nM
- inhibition at 1 µM [6]: 73%
- inhibition at 1 µM [7]: 68%

Compound: COc1ccc(C)cc1N1C(=O)CSC1c1cccc(C(=O)NCCCCc2ccccc2)c1 (stereo not given)
- inhibition at 1 µM [2]: 42%
- inhibition at 1 µM [3]: 95%
- inhibition at 1 µM [4]: 29%
- inhibition at 1 µM [5]: 92%
- IC50 [1]: 300 nM
- inhibition at 1 µM [6]: 79%
- inhibition at 1 µM [7]: 30%

- intrinsic clearance (CLint) [8]: 1472 mL/min/g
- intrinsic clearance (CLint) [9]: 421 mL/min/g
- solubility kinetic [10]: 50 µM (≈ 23.4 µg/mL)
- solubility kinetic [11]: 50 µM (≈ 23.4 µg/mL)
- intrinsic clearance (CLint) [12]: 1312 mL/min/g
Compound: COc1ccc(F)cc1N1C(=O)CSC1c1cccc(C(=O)NCCCCn2cccn2)c1 (stereo not given)
- IC50 [1]: 97.3 nM

Compound: CCN1C(=O)CSC1c1cccc(C(=O)NCCCCc2ccccc2)c1 (stereo not given)
- inhibition at 1 µM [2]: 6%
- inhibition at 1 µM [3]: 0%
- inhibition at 1 µM [4]: 40%
- inhibition at 1 µM [5]: 0%
- IC50 [1]: > 1000 nM
- inhibition at 1 µM [6]: 3%
- inhibition at 1 µM [7]: 13%

Compound: COc1ccccc1N1C(=O)CSC1c1cccc(C(=O)NCCCCn2ccc3ccccc32)c1 (stereo not given)
- IC50 [1]: 286 nM

Compound: COc1ccccc1N1C(=O)CSC1c1cc(C)cc(C(=O)NCCCCc2ccccc2)c1 (stereo not given)
- IC50 [1]: 16.2 nM

Compound: COc1cccc(OC)c1N1C(=O)CSC1c1cccc(C(=O)NCCCCc2ccccc2)c1 (stereo not given)
- inhibition at 1 µM [2]: 80%
- inhibition at 1 µM [3]: 95%
- inhibition at 1 µM [4]: 31%
- inhibition at 1 µM [5]: 80%
- IC50 [1]: > 1000 nM
- inhibition at 1 µM [6]: 72%
- inhibition at 1 µM [7]: 41%

- intrinsic clearance (CLint) [8]: 1198 mL/min/g
- intrinsic clearance (CLint) [9]: 116.4 mL/min/g
- solubility kinetic [10]: 50 µM (≈ 22 µg/mL)
- solubility kinetic [11]: 50 µM (≈ 22 µg/mL)
- intrinsic clearance (CLint) [12]: 397 mL/min/g
Compound: O=C(NCCCCn1cccn1)c1cccc(C2SCC(=O)N2c2cc(F)ccn2)c1 (stereo not given)
- IC50 [1]: 33.2 nM

- intrinsic clearance (CLint) [8]: 2275 mL/min/g
- intrinsic clearance (CLint) [9]: 811 mL/min/g
- solubility kinetic [10]: 2 µM (≈ 0.941 µg/mL)
- solubility kinetic [11]: 2 µM (≈ 0.941 µg/mL)
- intrinsic clearance (CLint) [12]: 2962 mL/min/g
Compound: O=C(NCCCCc1ccccc1)c1cccc(C2SCC(=O)N2c2ccc(C3CC3)cc2)c1 (stereo not given)
- IC50 [1]: 217 nM

Compound: O=C(NCCCCn1cccn1)c1cccc(C2SCC(=O)N2c2ccncc2)c1 (stereo not given)
- IC50 [1]: > 1000 nM

- intrinsic clearance (CLint) [8]: 506 mL/min/g
- intrinsic clearance (CLint) [9]: 82.1 mL/min/g
- solubility kinetic [10]: 50 µM (≈ 21.1 µg/mL)
- solubility kinetic [11]: 50 µM (≈ 21.1 µg/mL)
- intrinsic clearance (CLint) [12]: 304 mL/min/g
Compound: O=C(NCCCCn1cccn1)c1cccc(C2SCC(=O)N2c2ccccn2)c1 (stereo not given)
- IC50 [1]: 60.3 nM

Compound: O=C(NCCCCc1ccccc1)c1cc(F)cc(C2SCC(=O)N2c2ccccn2)c1 (stereo not given)
- IC50 [1]: 14.2 nM

- intrinsic clearance (CLint) [8]: 2204 mL/min/g
- intrinsic clearance (CLint) [9]: 1727 mL/min/g
- solubility kinetic [10]: 10 µM (≈ 4.85 µg/mL)
- solubility kinetic [11]: 10 µM (≈ 4.85 µg/mL)
- intrinsic clearance (CLint) [12]: 2490 mL/min/g
Compound: C#Cc1cc(C(=O)NCCCCc2ccccc2)cc(C2SCC(=O)N2c2ccccc2OC)c1 (stereo not given)
- IC50 [1]: 40.8 nM

Compound: Cc1ccnc(N2C(=O)CS[C@H]2c2cccc(C(=O)NCCCCn3cccn3)c2)c1
- IC50 [1]: > 10000 nM

Compound: COc1ccc(OC)c(N2C(=O)CSC2c2cccc(C(=O)NCCCCc3ccccc3)c2)c1 (stereo not given)
- inhibition at 1 µM [2]: 5%
- inhibition at 1 µM [3]: 20%
- inhibition at 1 µM [4]: 2%
- inhibition at 1 µM [5]: 92%
- IC50 [1]: > 1000 nM
- inhibition at 1 µM [6]: 48%
- inhibition at 1 µM [7]: 1%
